Reference: PMC4129416, “YLT192, a Novel, Orally Active Bioavailable Inhibitor of VEGFR2 Signaling with Potent Antiangiogenic Activity and Antitumor Efficacy in Preclinical Models” (Scientific Reports, 2014)

Tests used:
[1] = test system: HUVEC; experiment: Capillary-like tube formation assay; assay type: cell-based, human; conditions: designed concentrations; 6 hours; Matrigel
Protocol: To elucidate the possible mechanisms of angiogenesis inhibition, tube formation ability of ECs, which is a critical step in the process of angiogenesis, was assessed in HUVEC in vitro.
The anti-angiogenesis ability of YLT192 in vitro was evaluated using capillary tube formation assay as described previously. Briefly, 96-well plate was pre-incubated with Matrigel at 37°C for 45 minutes. Then HUVECs (2 × 10^4 cells) suspended in EGM2 medium were seeded onto the Matrigel. They were treated with various concentrations of YLT192. After 6 hours incubation at 37°C, tube formation was assessed with an OLYMPUS inverted digital camera in low power fields (50×). Vandetanib served as positive control. The assay was replicated 3 times.

[2] = test system: HUVEC; experiment: Wound healing migration assay; assay type: cell-based, human; conditions: various concentrations; 24 hours
Text: (§1) Cell migration is essential for ECs in angiogenesis and for cancer cells in tumor growth and metastasis. […] Cell invasion is essential for EC in angiogenesis, so we performed transwell assays to evaluate the ability of HUVEC to pass through the Matrigel and membrane barriers of the transwell in the presence of various concentrations of YLT192 or vehicle.
Figure 2 Effects of YLT192 on HUVECs proliferation, migration, invasion and tube formation. […] Cells were wounded by the pipette and then treated with various concentrations of compounds for 24 hours. Migrated cells were quantified by manual counting (50×). […] The bottom chambers of the transwells were filled with 600 μL EGM2 containing various growth factors while the top chambers were seeded with 4 × 10^4 HUVECs in EBM2 and treated with different concentrations of compounds for 24 hours. Cells invaded through the membrane were stained and quantified (100×). […] HUVECs were seeded on Matrigel layer and treated with different concentrations of compounds. HUVECs tube formation was assessed 6 hours later (50×). One representative experiment of three is shown. For (A), (B) and (C), data represent the mean ± SEM of three different experiments. Each experiment was performed in duplicate.*P < 0.05, **P < 0.01. (D) YLT192 inhibited VEGF-induced phosphorylation of VEGFR2 and its downstream signal regulator p44/42 MAPK, STAT3 and AKT in HUVECs. One representative Western blot of three is presented. Each has the expression of β-actin as internal control. The full size blots were shown in the Supplemental Figure S5 online. (E) Cellular thermal shift assay showing VEGFR2 target engagement by YLT192 in intact HUVECs. One representative Western blot of two is presented. The full size blots were shown in the Supplemental Figure S6 online. […]
(§2) HUVECs were allowed to grow into full confluence in 24-well plates and then wounded by scratching with pipette tips and washed with PBS. […] Images were taken using a ZEISS digital microscope and invading cells were counted by manual counting. […]

[3] = test system: HUVEC; experiment: Transwell invasion assay; assay type: cell-based, human; conditions: various concentrations; 24 hours; concentration-dependent
Text: as §1
Figure 2 Effects of YLT192 on HUVECs proliferation, migration, invasion and tube formation. […] Cells were wounded by the pipette and then treated with various concentrations of compounds for 24 hours. Migrated cells were quantified by manual counting (50×). […] The bottom chambers of the transwells were filled with 600 μL EGM2 containing various growth factors while the top chambers were seeded with 4 × 10^4 HUVECs in EBM2 and treated with different concentrations of compounds for 24 hours. Cells invaded through the membrane were stained and quantified (100×). […] HUVECs were seeded on Matrigel layer and treated with different concentrations of compounds. HUVECs tube formation was assessed 6 hours later (50×). One representative experiment of three is shown. […]
as §2

[4] = cited from earlier work; for toxicities after single doses: rat, in vivo; for maximal tolerance dose (MTD): rats, ref http://www.accessdata.fda.gov/drugsatfda

Compound	tube formation of HUVEC [1]	HUVECs migration in wound healing assay [2]	invasion of HUVECs in transwell assay [3]	toxicities after single doses [4]	maximal tolerance dose (MTD) [4] [mg/kg]
COc1cc2c(Nc3ccc(Br)cc3F)ncnc2cc1OCC1CCN(C)CC1 [Vandetanib, reference compound]	inhibited HUVECs tube formation	inhibited HUVECs migration	inhibted HUVECs invasion		
CNC(=O)c1cc(Oc2ccc(NC(=O)Nc3ccc(Cl)c(C(F)(F)F)c3)cc2)ccn1 [sorafenib]				toxicities in the gastrointestinal tract and liver	500
CCN(CC)CCNC(=O)c1c(C)[nH]c(/C=C2\C(=O)Nc3ccc(F)cc32)c1C [sunitinib]				toxicities in the gastrointestinal tract and liver	500
